Experimental data as given in patent US20230033360A1, “COMPOUNDS AS CD73 INHIBITORS” (BioArdis LLC, priority 2019, published 2023).

What follows are molecules tested against T1, Recombinant Human 5′-Nucleotidase (CD73) (Homo sapiens, UniProt P21589) (assay: CD73 Enzyme Assay (PiColorLock inorganic phosphate detection, AMP substrate)). Details: human CD73 0.5 nM, AMP 30 μM, 20 min at 37° C., absorbance 635 nm; read-out: Potency (IC50).
T1 construct: CHO derived CD73 (Trp27-Lys547), with a C-terminal 6-His tag; 6-His (C); purchased R&D 5795-EN; host or cells: CHO
T1 sequence (P21589 27-547): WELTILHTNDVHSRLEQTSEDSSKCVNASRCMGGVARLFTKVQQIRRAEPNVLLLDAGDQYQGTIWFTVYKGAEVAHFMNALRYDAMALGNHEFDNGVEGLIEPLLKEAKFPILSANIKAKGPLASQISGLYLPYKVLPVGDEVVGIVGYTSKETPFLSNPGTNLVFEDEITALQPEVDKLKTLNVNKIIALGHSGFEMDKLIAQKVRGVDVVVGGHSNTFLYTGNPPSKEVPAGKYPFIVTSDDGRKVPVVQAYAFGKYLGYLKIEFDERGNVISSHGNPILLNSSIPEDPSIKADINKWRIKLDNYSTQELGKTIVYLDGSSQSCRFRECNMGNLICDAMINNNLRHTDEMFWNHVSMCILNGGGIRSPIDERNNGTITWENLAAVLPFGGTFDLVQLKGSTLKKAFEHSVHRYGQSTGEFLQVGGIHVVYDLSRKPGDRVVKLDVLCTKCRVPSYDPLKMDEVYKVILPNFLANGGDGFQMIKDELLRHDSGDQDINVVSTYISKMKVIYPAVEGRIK
Assay type: biochemical
Excerpt: Soluble recombinant CD73 catalyzes the conversion of adenosine monophosphate (AMP) to adenosine and inorganic phosphate. The phosphate detection reagent, PiColorLock™ (Innova Bioscience, Cat #303-0125) is based on the change in absorbance of the dye malachite green in the presence of inorganic phosphate (Pi) and this property can be exploited to measure any enzyme that generates Pi. Recombinant Human 5′-Nucleotidase (CD73) (R&D #5795-EN, CHO derived CD73 (Trp27-Lys547), with a C-terminal 6-His tag) was used in the enzymatic assay. This assay, run in a 384-well plate format (Corning® NBS™ 384 well plates, Cat #3640), is a generic method for measuring inorganic phosphate. The basic assay procedure involves two steps: 1) Enzyme reaction: The CD73 enzyme (R&D #5795-EN) is incubated in the presence or absence of compounds. AMP (sigma, cat #01930) is added to start the […] reaction. 2) Detection step: Gold mix is added to the assay system, then stabilizers are added. After incubation the absorbance of the solution is read at OD 635 nm. The recorded OD signal is proportional to the enzyme activity.
Briefly, 25 μl human CD73 (0.5 nM final concentration) in the enzymatic buffer solutions (20 mM Tris, 25 mM NaCl, 1 mM MgCl2, pH 7.5, 0.005% Tween-20) were mixed with various concentrations of the test compound (dissolved in 100% DMSO). These solutions were incubated for 15 min at 25° C., and subsequently 25 μl AMP (30 μM final concentration) was added to start the reaction. The final reaction mixture of enzyme-substrate-compound was incubated for 20 min at 37° C. Meanwhile ‘Gold mix’ was prepared shortly before use by adding 1/100 vol. of accelerator to the PiColorLock™ Gold reagent. 12 μL/well of the ‘Gold mix’ was added to assay plate containing 50 μL enzyme reaction buffer and incubated at 25° C. for 5 min. 5 μL/well stabilizer was added to the assay plate and incubated at 25° C. for 30 min. The absorbance of the well solutions was measured at 635 nm on a Spark 10M instrument (TECAN).
The percent (%) inhibition at each concentration of a compound was calculated relative to the […] value in the Max and Min control wells contained within each assay plate. The Max control wells contained enzyme and substrate as 0% inhibition, and the Min control wells only contained substrate without enzyme as 100% inhibition. The concentrations and percent inhibition values for a test compound are plotted and the concentration of the compound required to achieve 50% inhibition (IC50) was determined with a four-parameter logistic dose response equation.

Row | Structure (SMILES) | IC50 [nM]
1 | O=P(O)(O)CP(=O)(O)OC[C@H]1O[C@@H](c2cnc3c(NC4CCCC4)cc(Cl)nn23)[C@@H](F)[C@@H]1O [Example S31, (((((2R,3R,4S,5S)-5-(6-chloro-8-(cyclopentylamino)imidazo[1,2-b]pyridazin-3-yl)-4-fluoro-3-hydroxytetrahydrofuran-2-yl)methoxy)(hydroxy)phosphoryl)methyl)phosphonic acid] | 10 to 99
2 | CN(c1cc(Cl)nn2c([C@@H]3O[C@H](COP(=O)(O)CP(=O)(O)O)[C@@H](O)[C@H]3O)cnc12)C1CCCC1 [Example S32] | 1 to 9.9
3 | O=P(O)(O)CP(=O)(O)OC[C@H]1O[C@@H](c2cnc3c(NC45CCC(CC4)C5)cc(Cl)nn23)[C@H](O)[C@@H]1O [Example S33, [({[(2R,3S,4R,5S)-5-(8-{bicyclo[2.2.1]heptan-1-ylamino}-6-chloroimidazo[1,2-b]pyridazin-3-yl)-3,4-dihydroxyoxolan-2-yl]methoxy}(hydroxy)phosphoryl)methyl]phosphonic acid] | 1 to 9.9
4 | O=P(O)(O)CP(=O)(O)OC[C@H]1O[C@@H](c2cnc3c(N4CCC[C@H]4c4ccccc4F)cc(Cl)nn23)[C@H](O)[C@@H]1O [Example S34, (((((2R,3S,4R,5S)-5-(6-chloro-8-((S)-2-(2-fluorophenyl)pyrrolidin-1-yl)imidazo[1,2-b]pyridazin-3-yl)-3,4-dihydroxytetrahydrofuran-2-yl)methoxy)(hydroxy)phosphoryl)methyl)phosphonic acid] | 1 to 9.9
5 | C[C@H](Nc1cc(Cl)nn2c([C@@H]3O[C@H](COP(=O)(O)CP(=O)(O)O)[C@@H](O)[C@H]3O)ncc12)c1ccccc1F [Example S37, (((((2R,3S,4R,5S)-5-(2-chloro-4-(((S)-1-(2-fluorophenyl)ethyl)amino)imidazo[1,5-b]pyridazin-7-yl)-3,4-dihydroxytetrahydrofuran-2-yl)methoxy)(hydroxy)phosphoryl)methyl)phosphonic acid] | 1 to 9.9
6 | O=P(O)(O)CP(=O)(O)OC[C@H]1O[C@@H](c2ncc3c(N4CC5CC5C4)cc(Cl)nn23)[C@H](O)[C@@H]1O (stereo partly drawn) [Example S39, (((((2R,3S,4R,5S)-5-(4-(3-azabicyclo[3.1.0]hexan-3-yl)-2-chloroimidazo[1,5-b]pyridazin-7-yl)-3,4-dihydroxytetrahydrofuran-2-yl)methoxy)(hydroxy)phosphoryl)methyl)phosphonic acid] | 1 to 9.9
7 | O=P(O)(O)CP(=O)(O)OC[C@H]1O[C@@H](c2ncc3c(N4CCc5ccccc54)cc(Cl)nn23)[C@H](O)[C@@H]1O [Example S40, [({[(2R,3S,4R,5S)-5-[2-chloro-4-(2,3-dihydroindol-1-yl)imidazo[1,5-b]pyridazin-7-yl]-3,4-dihydroxyoxolan-2-yl]methoxy}(hydroxy)phosphoryl)methyl]phosphonic acid] | 1 to 9.9
8 | O=P(O)(O)CP(=O)(O)OC[C@H]1O[C@@H](c2csc3c(N4CC5CCCC5C4)nc(Cl)nc23)[C@H](O)[C@@H]1O (stereo partly drawn) [Example S41, [({[(2R,3S,4R,5S)-5-(2-chloro-4-{hexahydro-1H-cyclopenta[c]pyrrol-2-yl}thieno[3,2-d]pyrimidin-7-yl)-3,4-dihydroxyoxolan-2-yl]methoxy}(hydroxy)phosphoryl)methyl]phosphonic acid] | 10 to 99
9 | O=P(O)(O)CP(=O)(O)OC[C@H]1O[C@@H](c2csc3c(N4CCCC4)cc(Cl)nc23)[C@H](O)[C@@H]1O [Example S42, [({[(2R,3S,4R,5S)-5-[5-chloro-7-(pyrrolidin-1-yl)thieno[3,2-b]pyridin-3-yl]-3,4-dihydroxyoxolan-2-yl]methoxy}(hydroxy)phosphoryl)methyl]phosphonic acid] | 1 to 9.9
10 | O=P(O)(O)CP(=O)(O)OC[C@H]1O[C@@H](c2csc3c(N4CC5CCCC5C4)cc(Cl)nc23)[C@@H](F)[C@@H]1O (stereo partly drawn) [Example S43, (((((2R,3R,4S,5S)-5-(5-chloro-7-(hexahydrocyclopenta[c]pyrrol-2 (1H)-yl)thieno[3,2-b]pyridin-3-yl)-4-fluoro-3-hydroxytetrahydrofuran-2-yl)methoxy)(hydroxy)phosphoryl)methyl)phosphonic acid] | 10 to 99
11 | O=P(O)(O)CP(=O)(O)OC[C@H]1O[C@@H](c2csc3c(N4CC5CCCC5C4)nc(Cl)nc23)[C@@H](F)[C@@H]1O (stereo partly drawn) [Example S44, [({[(2R,3R,4S,5S)-5-(2-chloro-4-{hexahydro-1H-cyclopenta[c]pyrrol-2-yl}thieno[3,2-d]pyrimidin-7-yl)-4-fluoro-3-hydroxyoxolan-2-yl]methoxy}(hydroxy)phosphoryl)methyl]phosphonic acid] | 10 to 99

The next lines start with the values.

Row | IC50 [nM] | Structure (SMILES)
12 | 1 to 9.9 | O=P(O)(O)CP(=O)(O)OC[C@H]1OC(c2cnc3c(N4CCc5ccccc5C4)cc(Cl)nn23)[C@H](O)[C@@H]1O (stereo partly drawn) [Example S28, (((((2R,3S,4R)-5-(6-chloro-8-(3,4-dihydroisoquinolin-2 (1H)-yl)imidazo[1,2-b]pyridazin-3-yl)-3,4-dihydroxytetrahydrofuran-2-yl)methoxy)(hydroxy)phosphoryl)methyl)phosphonic acid]
13 | 1 to 9.9 | O=P(O)(O)CP(=O)(O)OC[C@H]1OC(c2cnc3c(N4CCC(F)(F)CC4)cc(Cl)nn23)[C@H](O)[C@@H]1O (stereo partly drawn) [Example S29, (((((2R,3S,4R)-5-(6-chloro-8-(4,4-difluoropiperidin-1-yl)imidazo[1,2-b]pyridazin-3-yl)-3,4-dihydroxytetrahydrofuran-2-yl)methoxy)(hydroxy)phosphoryl)methyl)phosphonic acid]
14 | 1 to 9.9 | O=P(O)(O)CP(=O)(O)OC[C@H]1OC(c2cnc3c(OC4CCCC4)cc(Cl)nn23)[C@H](O)[C@@H]1O (stereo partly drawn) [Example S30, (((((2R,3S,4R)-5-(6-chloro-8-(cyclopentyloxy)imidazo[1,2-b]pyridazin-3-yl)-3,4-dihydroxytetrahydrofuran-2-yl)methoxy)(hydroxy)phosphoryl)methyl)phosphonic acid]
15 | 1 to 9.9 | O=P(O)(O)CP(=O)(O)OC[C@H]1O[C@@H](c2cnc3c(N4CCC(F)(F)C4)cc(Cl)nn23)[C@H](O)[C@@H]1O [Example S35, (((((2R,3S,4R,5S)-5-(6-chloro-8-(3,3-difluoropyrrolidin-1-yl)imidazo[1,2-b]pyridazin-3-yl)-3,4-dihydroxytetrahydrofuran-2-yl)methoxy)(hydroxy)phosphoryl)methyl)phosphonic acid]
16 | 1 to 9.9 | O=P(O)(O)CP(=O)(O)OC[C@H]1O[C@@H](c2ncc3c(N4CCCC4)cc(Cl)nn23)[C@H](O)[C@@H]1O [Example S38, [({[(2R,3S,4R,5S)-5-[2-chloro-4-(pyrrolidin-1-yl)imidazo[1,5-b]pyridazin-7-yl]-3,4-dihydroxyoxolan-2-yl]methoxy}(hydroxy)phosphoryl)methyl]phosphonic acid]
